Results from article PMC13608006 (Journal of medicinal chemistry, 2018).

How the values were obtained:
[1] = system: CV-B3 (CVB3-H3); format: cell-based, coxsackievirus B3; details: for SI50 (CV-B3 in HeLa cells): SI50 = CC50/EC50
[2] = system: EV-A71; test: antiviral CPE assay, anti-EV-A71 in LLC cells; format: cell-based, enterovirus 71 (EV-A71); details: SI50 = CC50/EC50

Row | Structure (SMILES) | antiviral activities against coxsackievirus B3 (CV-B3) [1] | SI50 (EV-A71 in LLC cells) [2] | SI50 (CV-B3 in HeLa cells) [1]
1 | O=C(Nc1ccccc1F)c1cc(-c2cccs2)nc2c1cnn2CC(F)(F)F [JX022, N-(2-Fluorophenyl)-6-(thiophen-2-yl)-1-(2,2,2-trifluoroethyl)-1H-pyrazolo[3,4-b]pyridine-4-carboxamide] | none of the above analogs demonstrated antiviral activities | – | –
2 | O=C(Nc1ccccc1F)c1cc(-c2cccs2)nc2c1cnn2C1CCC1 [JX014, 1-Cyclobutyl-N-(2-fluorophenyl)-6-(thiophen-2-yl)-1H-pyrazolo[3,4-b]pyridine-4-carboxamide] | none of the above analogs demonstrated antiviral activities | – | –
3 | COc1ccc(Cn2ncc3c(C(=O)Nc4ccc(F)cc4)cc(-c4cccs4)nc32)cc1 [JX031, N-(4-Fluorophenyl)-1-(4-methoxybenzyl)-6-(thiophen-2-yl)-1H-pyrazolo[3,4-b]pyridine-4-carboxamide] | none of the above analogs demonstrated antiviral activities | – | –
4 | CC(C)n1ncc2c(C(=O)Nc3ccncn3)cc(-c3cccs3)nc21 [JX043, 1-Isopropyl-N-(pyrimidin-4-yl)-6-(thiophen-2-yl)-1H-pyrazolo[3,4-b]pyridine-4-carboxamide] | – | SI50: 100.0 | SI50: 33.3
5 | CC(C)n1ncc2c(C(=O)Nc3ccccn3)cc(-c3cccs3)nc21 [JX040, 1-Isopropyl-N-(pyridin-2-yl)-6-(thiophen-2-yl)-1H-pyrazolo-[3,4-b]pyridine-4-carboxamide] | – | SI50: >400.0 | SI50: >250.0
6 | CC(C)n1ncc2c(C(=O)Nc3c(F)cc(F)cc3F)cc(-c3cccs3)nc21 [JX020, 1-Isopropyl-6-(thiophen-2-yl)-N-(2,4,6-trifluorophenyl)-1H-pyrazolo[3,4-b]pyridine-4-carboxamide] | – | SI50: >66.7 | SI50: >111.1
7 | CC(C)n1ncc2c(C(=O)Nc3ccc(F)cc3F)cc(-c3cccs3)nc21 [JX008, N-(2,4-Difluorophenyl)-1-isopropyl-6-(thiophen-2-yl)-1H-pyrazolo[3,4-b]pyridine-4-carboxamide] | – | SI50: >125.0 | SI50: >142.9
8 | CNS(=O)(=O)c1cccc(NC(=O)c2cc(-c3cccs3)nc3c2cnn3C(C)C)c1 [JX053, 1-Isopropyl-N-(3-(N-methylsulfamoyl)phenyl)-6-(thiophen-2-yl)-1H-pyrazolo[3,4-b]pyridine-4-carboxamide] | – | SI50: 35.7 | SI50: 24.0
9 | O=C(Nc1ccc(F)cc1)c1cc(-c2cccs2)nc2c1cnn2C1CCCC1 [JX027, 1-Cyclopentyl-N-(4-fluorophenyl)-6-(thiophen-2-yl)-1H-pyrazolo[3,4-b]pyridine-4-carboxamide] | none of the above analogs demonstrated antiviral activities | – | –
10 | CC(C)n1ncc2c(C(=O)Nc3ccc(F)c(S(N)(=O)=O)c3)cc(-c3cccs3)nc21 [JX069, N-(4-Fluoro-3-sulfamoylphenyl)-1-isopropyl-6-(thiophen-2-yl)-1H-pyrazolo[3,4-b]pyridine-4-carboxamide] | – | SI50: 62.5 | SI50: >181.8
11 | CC(C)n1ncc2c(C(=O)Nc3ccccc3F)cc(-c3ccccn3)nc21 [JX004, N-(2-Fluorophenyl)-1-isopropyl-6-(pyridin-2-yl)-1H-pyrazolo[3,4-b]pyridine-4-carboxamide] | – | – | SI50: >29.0
12 | CC(C)n1ncc2c(C(=O)Nc3c(F)cccc3F)cc(-c3cccs3)nc21 [JX009, N-(2,6-Difluorophenyl)-1-isopropyl-6-(thiophen-2-yl)-1H-pyrazolo[3,4-b]pyridine-4-carboxamide] | – | SI50: >58.8 | SI50: >62.5
13 | CC(C)n1ncc2c(C(=O)Nc3ccc(F)cn3)cc(-c3cccs3)nc21 [JX075, N-(5-Fluoropyridin-2-yl)-1-isopropyl-6-(thiophen-2-yl)-1H-pyrazolo[3,4-b]pyridine-4-carboxamide] | – | SI50: >166.7 | SI50: 53.6
14 | CC(C)n1ncc2c(C(=O)Nc3ccccn3)cc(-c3ccsc3)nc21 [JX057, 1-Isopropyl-N-(pyridin-2-yl)-6-(thiophen-3-yl)-1H-pyrazolo-[3,4-b]pyridine-4-carboxamide] | – | SI50: 31.3 | SI50: 15.0
15 | O=C(Nc1ccccc1F)c1cc(-c2cccs2)nc2c1cnn2-c1ccccc1 [JX012, N-(2-Fluorophenyl)-1-phenyl-6-(thiophen-2-yl)-1H-pyrazolo[3,4-b]pyridine-4-carboxamide] | none of the above analogs demonstrated antiviral activities | – | –
16 | CC(C)n1ncc2c(C(=O)Nc3cccc(F)c3F)cc(-c3cccs3)nc21 [JX019, N-(2,3-Difluorophenyl)-1-isopropyl-6-(thiophen-2-yl)-1H-pyrazolo[3,4-b]pyridine-4-carboxamide] | – | SI50: 25.0 | SI50: >74.1
17 | O=C(Nc1ccc(F)cc1)c1cc(-c2cccs2)nc2c1cnn2C1CCCCC1 [JX028, 1-Cyclohexyl-N-(4-fluorophenyl)-6-(thiophen-2-yl)-1H-pyrazolo[3,4-b]pyridine-4-carboxamide] | none of the above analogs demonstrated antiviral activities | – | –

Row | Structure (SMILES) | antiviral activities against coxsackievirus B3 (CV-B3) [1] | SI50 (EV-A71 in LLC cells) [2] | SI50 (CV-B3 in HeLa cells) [1]
18 | CC(C)n1ccc2c(C(=O)Nc3ccccn3)cc(-c3cccs3)nc21 [JX072, 1-Isopropyl-N-(pyridin-2-yl)-6-(thiophen-2-yl)-1H-pyrrolo-[2,3-b]pyridine-4-carboxamide] | – | SI50: >166.7 | SI50: 8.5
19 | CC(C)n1ncc2c(C(=O)Nc3ncccn3)cc(-c3ccsc3)nc21 [JX058, 1-Isopropyl-N-(pyrimidin-2-yl)-6-(thiophen-3-yl)-1H-pyrazolo[3,4-b]pyridine-4-carboxamide] | – | SI50: 41.7 | SI50: 33.3
20 | CC(C)n1ncc2c(C(=O)Nc3ncccn3)cc(-c3cccs3)nc21 [JX041, 1-Isopropyl-N-(pyrimidin-2-yl)-6-(thiophen-2-yl)-1H-pyrazolo[3,4-b]pyridine-4-carboxamide] | – | SI50: 150.0 | SI50: 62.5
21 | CC(C)n1ncc2c(C(=O)Nc3ccccc3S(N)(=O)=O)cc(-c3cccs3)nc21 [JX033, 1-Isopropyl-N-(2-sulfamoylphenyl)-6-(thiophen-2-yl)-1H-pyrazolo[3,4-b]pyridine-4-carboxamide] | – | SI50: 10.0 | SI50: 3.8
22 | CC(C)n1ncc2c(C(=O)Nc3ccccn3)cc(C3CC3)nc21 [JX071, 6-Cyclopropyl-1-isopropyl-N-(pyridin-2-yl)-1H-pyrazolo[3,4-b]pyridine-4-carboxamide] | – | SI50: 5.3 | SI50: 5.3
23 | CC(C)n1ncc2c(C(=O)Nc3ccccc3F)cc(-c3cncs3)nc21 [JX010, N-(2-Fluorophenyl)-1-isopropyl-6-(thiazol-5-yl)-1H-pyrazolo[3,4-b]pyridine-4-carboxamide] | – | SI50: 27.0 | SI50: >60.6
24 | CC(C)n1ncc2c(C(=O)Nc3ccccc3F)cc(-c3cccnc3)nc21 [JX005, N-(2-Fluorophenyl)-1-isopropyl-6-(pyridin-3-yl)-1H-pyrazolo[3,4-b]pyridine-4-carboxamide] | – | – | SI50: 5.4
25 | CC(C)n1ncc2c(C(=O)Nc3cccnc3)cc(-c3ccsc3)nc21 [JX060, 1-Isopropyl-N-(pyridin-3-yl)-6-(thiophen-3-yl)-1H-pyrazolo-[3,4-b]pyridine-4-carboxamide] | – | SI50: 15.4 | SI50: 30.0
26 | CC(C)n1ncc2c(C(=O)Nc3ccc(S(C)(=O)=O)cc3)cc(-c3cccs3)nc21 [JX047, 1-Isopropyl-N-(4-(methylsulfonyl)phenyl)-6-(thiophen-2-yl)-1H-pyrazolo[3,4-b]pyridine-4-carboxamide] | – | SI50: 100.0 | SI50: 200.0
27 | CC(C)n1ncc2c(C(=O)Nc3ccc(F)c(F)c3)cc(-c3cccs3)nc21 [JX015, N-(3,4-Difluorophenyl)-1-isopropyl-6-(thiophen-2-yl)-1H-pyrazolo[3,4-b]pyridine-4-carboxamide] | – | – | SI50: >153.8
28 | CC(C)n1ncc2c(C(=O)Nc3ccc(F)cc3)cc(-c3cccs3)nc21 [JX017, N-(4-Fluorophenyl)-1-isopropyl-6-(thiophen-2-yl)-1H-pyrazolo[3,4-b]pyridine-4-carboxamide] | – | SI50: >222.2 | SI50: >285.7
29 | O=C(Nc1ccc(F)cc1)c1cc(-c2cccs2)nc2[nH]ncc12 [JX032, N-(4-Fluorophenyl)-6-(thiophen-2-yl)-1H-pyrazolo[3,4-b]-pyridine-4-carboxamide] | none of the above analogs demonstrated antiviral activities | – | –
30 | CC(C)(C)n1ncc2c(C(=O)Nc3ccccc3F)cc(-c3cccs3)nc21 [JX013, 1-(tert-Butyl)-N-(2-fluorophenyl)-6-(thiophen-2-yl)-1H-pyrazolo[3,4-b]pyridine-4-carboxamide] | none of the above analogs demonstrated antiviral activities | – | –
31 | O=C(Nc1ccc(F)cc1)c1cc(-c2cccs2)nc2c1cnn2C1CCCCCC1 [JX029, 1-Cycloheptyl-N-(4-fluorophenyl)-6-(thiophen-2-yl)-1H-pyrazolo[3,4-b]pyridine-4-carboxamide] | none of the above analogs demonstrated antiviral activities | – | –
32 | CC(C)n1ncc2c(C(=O)Nc3ccccc3F)cc(-c3ccncc3)nc21 [JX003, N-(2-Fluorophenyl)-1-isopropyl-6-(pyridin-4-yl)-1H-pyrazolo[3,4-b]pyridine-4-carboxamide] | – | – | SI50: 7.4
33 | CC(C)n1ccc2c(C(=O)Nc3ccc(F)cc3)cc(-c3cccs3)nc21 [JX037, N-(4-Fluorophenyl)-1-isopropyl-6-(thiophen-2-yl)-1H-pyrrolo[2,3-b]pyridine-4-carboxamide] | – | – | SI50: 64.5
